For one substance, Kd results are on record in patent publication US6054464A (priority 1996, dated 2000).

This test concerns the target α7 nAChR subtype (Rattus norvegicus, UniProt Q05941). Format: binding.

Sequence of α7 nAChR subtype (Q05941 23-502 limits assumed): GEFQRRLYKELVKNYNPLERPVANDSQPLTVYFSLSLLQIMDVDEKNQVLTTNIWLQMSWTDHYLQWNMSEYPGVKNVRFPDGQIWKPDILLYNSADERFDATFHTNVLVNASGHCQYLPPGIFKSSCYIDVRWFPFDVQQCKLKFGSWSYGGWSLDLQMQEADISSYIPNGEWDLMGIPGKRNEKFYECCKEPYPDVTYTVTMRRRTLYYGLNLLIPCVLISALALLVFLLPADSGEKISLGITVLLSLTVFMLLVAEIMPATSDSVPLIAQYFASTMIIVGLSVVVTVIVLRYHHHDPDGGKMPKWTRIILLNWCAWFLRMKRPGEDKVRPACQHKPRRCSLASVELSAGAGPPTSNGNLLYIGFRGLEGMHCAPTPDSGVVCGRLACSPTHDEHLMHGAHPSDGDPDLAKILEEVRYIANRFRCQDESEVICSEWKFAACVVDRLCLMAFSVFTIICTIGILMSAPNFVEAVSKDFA

For the substance “[^125 I]-α-Bungarotoxin [[^125 I]-α-BTX]”, the dissociation constant (Kd) came out at 1.67 nM.

One may read the Kd as the concentration at which binding is half-saturated. A low value points to higher affinity.
